Data reported in patent US8202885B2, “Bridged six-membered ring compounds” (Actelion Pharmaceuticals Ltd., priority 2007, dated 2012).

How the values were obtained:
[1] = system: human Cav3.1 Cav3.2 or Cav3.3 channel; assay: In vitro assay T channel (FLIPR calcium fluorescence); type: cell-based; settings: HEK293 cells expressing human Cav3.1, Cav3.2 or Cav3.3; 10 mM Ca2+-induced fluo-4 fluorescence; determined up to 10 μM; read-out: T channel antagonistic activity IC50
In short: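 IC50 (nM) is the antagonist concentration halving the area under the fluorescence peak evoked by 10 mM Ca2+, relative to vehicle, with testing up to 10 μM. Fluo-4-loaded HEK293 cells expressing each human Cav3 subtype received compound 3 min before Ca2+ addition (TEA-based buffer, pH 7.2); signal monitored 8 min at 2 s intervals.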

isolated mouse hearts = assay: Effect on isolated hearts according to the Langendorff method (Lgdff)
Description: Effect on Isolated Hearts According to the Langendorff Method (Lgdff)
The compounds were tested for their potential to reduce blood pressure and their effect on the contractility of the heart muscle. EC50 values on isolated mouse hearts were determined according to Literature (Doring H J., The isolated perfused heart according to Langendorff technique—function—application, Physiol. Bohemoslov. 1990, 39(6), 481-504; Kligfield P, Horner H, Brachfeld N., A model of graded ischemia in the isolated perfused rat heart, J. Appl. Physiol. 1976 June, 40(6), 1004-8).
51 example compounds have been measured using the procedure described above for the Langendorff experiment. The measured EC50 values were in the range of 4 to 669 nM with an average of 37 nM.

Molecule | IC50 [1] [nM] | EC50 (isolated mouse hearts) [nM]
COc1cccc(C2=C[C@H]3CC[C@@H]2C[C@]3(CCN(C)CCCc2nc3ccccc3[nH]2)OC(=O)C(C)C)c1 (relative stereo) [Example 2A, rac-Isobutyric acid (1R*,2R*,4R*)-2-(2-{[3-(1H-benzoimidazol-2-yl)-propyl]-methyl-amino}-ethyl)-5-(3-methoxy-phenyl)-bicyclo[2.2.2]oct-5-en-2-yl ester] | 2310 | 15
CC1=C(c2ccccc2)[C@H]2CC[C@@H]1C[C@]2(CCN(C)CCCc1nc2ccccc2[nH]1)OC(=O)C(C)C (relative stereo) [Example 17A, rac-Isobutyric acid (1R*,2R*,4R*)-2-(2-{[3-(1H-benzoimidazol-2-yl)-propyl]-methyl-amino}-ethyl)-5-methyl-6-phenyl-bicyclo[2.2.2]oct-5-en-2-yl ester] | 1370 | 12
CC(C)C(=O)O[C@@]1(CCN(C)CCCc2nc3ccccc3[nH]2)C[C@H]2CC[C@@H]1C=C2c1cccs1 (relative stereo) [Example 21A, rac-Isobutyric acid (1R*,2R*,4R*)-2-(2-{[3-(1H-benzoimidazol-2-yl)-propyl]-methyl-amino}-ethyl)-5-thiophen-2-yl-bicyclo[2.2.2]oct-5-en-2-yl ester] | 2420 | 10
COc1cccc2[nH]c(CCCN(C)CC[C@]3(OC(=O)CC(F)(F)F)C[C@H]4CC[C@@H]3C=C4c3ccccc3)nc12 (relative stereo) [Example 26C, rac-3,3,3-Trifluoro-propionic acid (1R*,2R*,4R*)-2-(2-{[3-(4-methoxy-1H-benzoimidazol-2-yl)-propyl]-methyl-amino}-ethyl)-5-phenyl-bicyclo[2.2.2]oct-5-en-2-yl ester] | 4640 | 4
CN(CCCc1nc2ccccc2[nH]1)CCC1(O)CC2CCC1C=C2c1ccccc1 (single isomer, unassigned) [Example 11, (1R,2R,4R)-2-(2-{[3-(1H-Benzoimidazol-2-yl)-propyl]-methyl-amino}-ethyl)-5-phenyl-bicyclo[2.2.2]oct-5-en-2-ol or (1S,2S,4S)-2-(2-{[3-(1H-benzoimidazol-2-yl)-propyl]-methyl-amino}-ethyl)-5-phenyl-bicyclo[2.2.2]oct-5-en-2-ol] | > 10000 | –
CN(CCCc1nc2ccccc2[nH]1)CCC1(O)CC2CCC1C=C2c1ccccc1 (single isomer, unassigned) [Example 12, (1R,2R,4R)-2-(2-{[3-(1H-Benzoimidazol-2-yl)-propyl]-methyl-amino}-ethyl)-5-phenyl-bicyclo[2.2.2]oct-5-en-2-ol or (1S,2S,4S)-2-(2-{[3-(1H-benzoimidazol-2-yl)-propyl]-methyl-amino}-ethyl)-5-phenyl-bicyclo[2.2.2]oct-5-en-2-ol] | > 10000 | –
CC(C)C(=O)OC1(CCN(C)CCCc2nc3ccccc3[nH]2)CC2CCC1C=C2c1ccccc1 [Example 11A, Isobutyric acid (1R,2R,4R)-2-(2-{[3-(1H-benzoimidazol-2-yl)-propyl]-methyl-amino}-ethyl)-5-phenyl-bicyclo[2.2.2]oct-5-en-2-yl ester or isobutyric acid (1S,2S,4S)-2-(2-{[3-(1H-benzoimidazol-2-yl)-propyl]-methyl-amino}-ethyl)-5-phenyl-bicyclo[2.2.2]oct-5-en-2-yl ester] | 4650 | –
CC(C)C(=O)OC1(CCN(C)CCCc2nc3ccccc3[nH]2)CC2CCC1C=C2c1ccccc1 [Example 12A, Isobutyric acid (1R,2R,4R)-2-(2-{[3-(1H-benzoimidazol-2-yl)-propyl]-methyl-amino}-ethyl)-5-phenyl-bicyclo[2.2.2]oct-5-en-2-yl ester or isobutyric acid (1S,2S,4S)-2-(2-{[3-(1H-benzoimidazol-2-yl)-propyl]-methyl-amino}-ethyl)-5-phenyl-bicyclo[2.2.2]oct-5-en-2-yl ester] | 4230 | –
rac-(1R*,3R*,4R*)-1,2,3,4,9,10-Hexahydro-3-hydroxy-3-{N-methyl-N-(3-benzimidazol-2-ylpropyl)aminoethyl}-1,4-ethanophenanthrene [Example 18] | 1340 | –

Other lines, results leading:

IC50 [1] [nM] | EC50 (isolated mouse hearts) [nM] | Molecule
2560 | 9 | CC(C)C(=O)O[C@@]1(CCN(C)CCCc2cccnc2)C[C@H]2CC[C@@H]1C=C2c1ccccc1 (relative stereo) [Example 46A, rac-Isobutyric acid (1R*,2R*,4R*)-2-{2-[methyl-(3-pyridin-3-yl-propyl)-amino]-ethyl}-5-phenyl-bicyclo[2.2.2]oct-5-en-2-yl ester]
1140 | – | COc1cccc2[nH]c(CCCN(C)CCC3(OC(=O)C(C)C)CC4CCC3C=C4c3ccccc3)nc12 [Example 54A, Isobutyric acid (1R,2R,4R)-2-(2-{[3-(4-methoxy-1H-benzoimidazol-2-yl)-propyl]-methyl-amino}-ethyl)-5-phenyl-bicyclo[2.2.2]oct-5-en-2-yl ester or isobutyric acid (1S,2S,4S)-2-(2-{[3-(4-methoxy-1H-benzoimidazol-2-yl)-propyl]-methyl-amino}-ethyl)-5-phenyl-bicyclo[2.2.2]oct-5-en-2-yl ester]
1070 | – | COc1cccc2[nH]c(CCCN(C)CCC3(OC(=O)C(C)C)CC4CCC3C=C4c3ccccc3)nc12 [Example 55A, Isobutyric acid (1R,2R,4R)-2-(2-{[3-(4-methoxy-1H-benzoimidazol-2-yl)-propyl]-methyl-amino}-ethyl)-5-phenyl-bicyclo[2.2.2]oct-5-en-2-yl ester or isobutyric acid (1S,2S,4S)-2-(2-{[3-(4-methoxy-1H-benzoimidazol-2-yl)-propyl]-methyl-amino}-ethyl)-5-phenyl-bicyclo[2.2.2]oct-5-en-2-yl ester]
778 | – | COc1ccc(OC)c2[nH]c(CCCN(C)CCC3(OC(=O)C(C)C)CC4CCC3C=C4c3ccccc3)nc12 [Example 67A, Isobutyric acid (1R,2R,4R)-2-(2-{[3-(4,7-dimethoxy-1H-benzoimidazol-2-yl)-propyl]-methyl-amino}-ethyl)-5-phenyl-bicyclo[2.2.2]oct-5-en-2-yl ester or Isobutyric acid (1S,2S,4S)-2-(2-{[3-(4,7-dimethoxy-1H-benzoimidazol-2-yl)-propyl]-methyl-amino}-ethyl)-5-phenyl-bicyclo[2.2.2]oct-5-en-2-yl ester]
793 | – | COc1ccc(OC)c2[nH]c(CCCN(C)CCC3(OC(=O)C(C)C)CC4CCC3C=C4c3ccccc3)nc12 [Example 70A, Isobutyric acid (1R,2R,4R)-2-(2-{[3-(4,7-dimethoxy-1H-benzoimidazol-2-yl)-propyl]-methyl-amino}-ethyl)-5-phenyl-bicyclo[2.2.2]oct-5-en-2-yl ester or isobutyric acid (1S,2S,4S)-2-(2-{[3-(4,7-dimethoxy-1H-benzoimidazol-2-yl)-propyl]-methyl-amino}-ethyl)-5-phenyl-bicyclo[2.2.2]oct-5-en-2-yl ester]
6070 | – | CN(CCCc1nc2ccccc2[nH]1)CC[C@@]1(O)C[C@@H]2CC[C@H]1CN2c1ccccc1 [Example 74, (1S,4S,5R)-5-(2-{[3-(1H-Benzoimidazol-2-yl)-propyl]-methyl-amino}-ethyl)-2-phenyl-2-aza-bicyclo[2.2.2]octan-5-ol]
8600 | – | CC(C)C(=O)O[C@]1(CCN(C)CCCc2nc3ccccc3[nH]2)C[C@@H]2CC[C@H]1CN2c1ccccc1 [Example 74A, Isobutyric acid (1S,4S,5R)-5-(2-{[3-(1H-benzoimidazol-2-yl)-propyl]-methyl-amino}-ethyl)-2-phenyl-2-aza-bicyclo[2.2.2]oct-5-yl ester]
